Patent publication US20230064990A1, “DOSING REGIMENS AND METHODS FOR TREATING CANCER” (Panbela Therapeutics, Inc., priority 2020, published 2023)
Where “and” joins values, the source holds several entries; their conditions need not be identical. Equal entries are not always repeated.

Assays:
metastatic PDA = assay: Phase 1a/1b study in combination with G and A, efficacy (RECIST, CA19-9); assay type: in vivo, human
Procedure: (§1) G (1000 mg/m^2) and A (125 mg/m^2) were administered intravenously on Days 1, 8, and 15 of each cycle. […] PK was evaluated on day 1 of cycle 1. Efficacy was assessed by CA19-9 levels, objective response was assessed by RECIST criteria, progression-free survival (PFS) and overall survival (OS).
(§2) This is a multicenter, open label, Phase 1a/1b study to evaluate to evaluate the safety, tolerability, pharmacokinetics and efficacy of (S,S)-(HO)2DEHSPM when administered in combination with G and A as first-line therapy in pancreatic cancer patients previously untreated for metastatic disease. The objective was to determine a recommended Phase 2 dose. Using a modified 3+3 dose escalation scheme, cohorts of subjects were dosed with subcutaneous injections of (S,S)-(HO)2DEHSPM at 0.2, 0.4 or 0.6 mg/kg days 1-5 of each 28-day cycle. Gemcitabine (1000 mg/m^2) and A (125 mg/m^2) were administered intravenously on Days 1, 8, and 15 of each cycle. […] PK was evaluated on day 1 of cycle 1. Efficacy was assessed by objective response rate (ORR) using RECIST criteria and by changes in CA19-9 levels. Subjects were treated until disease progression or the development of dose-limiting toxicity. Based upon initial safety findings and preliminary signals of efficacy, the protocol was amended to evaluate progression-free survival (PFS) and overall survival (OS) and expand the study to up to 36 subjects at the recommended Phase 2 dose. To date, 20 subjects were enrolled in cohorts 1-3 and evaluated for dose limiting toxicity and early signals of efficacy.

[1] = 4-week repeated dose toxicity study in rats; assay type: in vivo
Procedure: For the first-in-human (Phase 1a/1b) study, a starting dose of 0.05 mg/kg (1.8 mg/m^2) of (S,S)-(HO)2DEHSPM.4HCl was chosen as 1/10 the severely toxic dose (STD10) observed in a 4-week repeated dose toxicity study in rats (3 mg/kg/day; […]). This dose was chosen in accordance with the ICH S9 Guideline for the Nonclinical Development for Anti-Cancer Pharmaceuticals. For the Phase 1a/1b dosing schedule patients were administered up to 0.4 mg/kg/day Monday through Friday for 3 weeks for a total cumulative dose (TCD) of 6 mg/kg. In this animal experiment, one cycle consisted of 3 weeks of dosing and 5 weeks of rest for a total cycle length of 8 weeks.

[2] = Repeat doses in healthy beagles; assay type: in vivo
Procedure: This effect on the exocrine pancreas in dogs (causing nearly complete ablation of the exocrine pancreas) was an unexpected finding in development of this polyamine analogue as a therapeutic agent. It occurred in a dose-dependent manner several weeks after drug dosing was discontinued in dogs. Beginning 5 to 6 weeks post last dose, the animals at the high-dose levels rapidly lost weight and their serum trypsin-like immunoreactivity decreased to <2.5 μg/L, which is diagnostic for exocrine pancreatic insufficiency in this species. In addition, fat absorption tests became abnormal and hepatic transaminase values increased. The pancreata of euthanized animals were grossly atrophied with diffuse moderate to severe pancreatic atrophy, especially of the acini. However, the islets appeared both histologically intact and functional based on serum glucose levels and oral glucose tolerance tests.

[3] = tested on: locally advanced or metastatic PDA; assay: Phase 1 monotherapy dose escalation study, efficacy (RECIST, overall survival); assay type: in vivo, human
Procedure: Efficacy was assessed by RECIST criteria and overall survival.

[4] = Phase 1a/1b study in combination with G and A, safety; assay type: in vivo, human
Procedure: as §1, §2

clinical = settings: human, in vivo
Procedure: Safety and tolerability were evaluated by clinical and laboratory assessments. PK was evaluated on Days 1 and 18 of cycle 1. Efficacy was assessed by RECIST criteria and overall survival.

[5] = Cohorts 2 and 3, N=13 evaluable, with G and A
[6] = in combination with G+A, previously untreated metastatic PDA
[7] = interim, cohorts 2 and 3, with G and A
[8] = N=20, (S,S)-(HO)2DEHSPM with G + A
[9] = N=20, in combination with G + A

CCNCCC(O)CNCCCCNCC(O)CCNCC [(S,S)-(HO)2DEHSPM, (6S,15S)-3,8,13,18-teraazaicosane-6,15-diol]
Best response PR, number of evaluable subjects (metastatic PDA; [5]): 8
Best response PR, percent of evaluable subjects (metastatic PDA; [5]): 62%
Best response SD, number of evaluable subjects (metastatic PDA; [5]): 5
Best response SD, percent of evaluable subjects (metastatic PDA; [5]): 38%
subjects with CA 19-9 maximum decrease greater than 60% (metastatic PDA; cohorts 2 and 3, N=16, with G and A): 69%
DCR (metastatic PDA; [6]): 85%
ORR (metastatic PDA; [6]): 62%
CA19-9 levels decreased (metastatic PDA; interim, cohorts 2 and 3, 7 of 8 evaluable subjects, with G and A): 76-95%
Stable disease (metastatic PDA; [7]): 1
partial responses (metastatic PDA; [7]): 5 patients
severely toxic dose (STD10) [1]: 3 mg/kg/day
effect on exocrine pancreas ([2]; cumulative exposure to repeat doses): exocrine pancreatic atrophy with exocrine pancreatic insufficiency without an inflammatory response and with preservation of islet cell function
serum trypsin-like immunoreactivity ([2]; high-dose levels, beginning 5 to 6 weeks post last dose): < 2.5 µg/L
Stable disease ([3]; cohort 3 (0.2 mg/kg), N=4): 2 patients
Median survival ([3]; cohort 3 (0.2 mg/kg), N=4, heavily pre-treated PDA patients): 5.9 months
Stable disease ([3]; cohort 4 (0.4 mg/kg), N=7): 2 patients
Stable disease ([3]; cohort 5 (0.8 mg/kg), N=10): 4 patients
Grade ≥3 Anemia related to the named study medication (subjects) ([4]; N=20): 0
Grade ≥3 Dehydration related to the named study medication (subjects) ([4]; N=20): 0
Grade ≥3 Delirium related to the named study medication (subjects) ([4]; N=20): 0
Grade ≥3 Dyspnea related to the named study medication (subjects) ([4]; N=20): 0
Grade ≥3 Elevated LFTs related to the named study medication (subjects) ([4]; N=20): 4
Grade ≥3 Elevated Lipase related to the named study medication (subjects) ([4]; N=20): 1
Grade ≥3 Fatigue related to the named study medication (subjects) ([4]; N=20): 0
Grade ≥3 Hiccups (Intractable) related to the named study medication (subjects) ([4]; N=20): 0
Grade ≥3 Hyponatremia related to the named study medication (subjects) ([4]; N=20): 0
Grade ≥3 Neutropenia related to the named study medication (subjects) ([4]; N=20): 0
Grade ≥3 Thrombocytopenia related to the named study medication (subjects) ([4]; N=20): 0
Grade ≥3 Anemia related to any study medication, Total (%) [4, 8]: (15%)
Grade ≥3 Anemia related to any study medication, Total N [4, 8]: 3
Grade ≥3 Dehydration related to any study medication, Total (%) [4, 8]: (5%)
Grade ≥3 Dehydration related to any study medication, Total N [4, 8]: 1
Grade ≥3 Delirium related to any study medication, Total (%) [4, 8]: (5%)
Grade ≥3 Delirium related to any study medication, Total N [4, 8]: 1
Grade ≥3 Dyspnea related to any study medication, Total (%) [4, 8]: (5%)
Grade ≥3 Dyspnea related to any study medication, Total N [4, 8]: 1
Grade ≥3 Elevated LFTs related to any study medication, Total (%) [4, 8]: (20%)
Grade ≥3 Elevated LFTs related to any study medication, Total N [4, 8]: 4
Grade ≥3 Elevated Lipase related to any study medication, Total (%) [4, 8]: (5%)
Grade ≥3 Elevated Lipase related to any study medication, Total N [4, 8]: 1
Grade ≥3 Fatigue related to any study medication, Total (%) [4, 8]: (5%)
Grade ≥3 Fatigue related to any study medication, Total N [4, 8]: 1
Grade ≥3 Hiccups (Intractable) related to any study medication, Total (%) [4, 8]: (5%)
Grade ≥3 Hiccups (Intractable) related to any study medication, Total N [4, 8]: 1
Grade ≥3 Hyponatremia related to any study medication, Total (%) [4, 8]: (5%)
Grade ≥3 Hyponatremia related to any study medication, Total N [4, 8]: 1
Grade ≥3 Neutropenia related to any study medication, Total (%) [4, 8]: (30%)
Grade ≥3 Neutropenia related to any study medication, Total N [4, 8]: 6
Grade ≥3 Thrombocytopenia related to any study medication, Total (%) [4, 8]: (5%)
Grade ≥3 Thrombocytopenia related to any study medication, Total N [4, 8]: 1
Grade ≥ 3 Anemia, % [4, 9]: 15%
Grade ≥ 3 Diarrhea, % [4, 9]: 0%
Grade ≥ 3 Fatigue, % [4, 9]: 5%
Grade ≥ 3 Leukopenia (G3-4), % [4, 9]: 15%
Grade ≥ 3 Neutropenia (G3-4), % [4, 9]: 30%
Grade ≥ 3 Peripheral Neuropathy, % [4, 9]: 0%
Grade ≥ 3 Thrombocytopenia, % [4, 9]: 5%
Diarrhea, Grade 1 (related AE, subjects) ([4]; N=20, with G+A): 1
Diarrhea, Grade 2 (related AE, subjects) ([4]; N=20, with G+A): 1
Diarrhea, Grade 3 (related AE, subjects) ([4]; N=20, with G+A): 0
Diarrhea, Grade 4 (related AE, subjects) ([4]; N=20, with G+A): 0
Diarrhea, Grade 5 (related AE, subjects) ([4]; N=20, with G+A): 0
Diarrhea, Total (%) (related AE) ([4]; N=20, with G+A): 10%
Diarrhea, Total N (related AE) ([4]; N=20, with G+A): 2
Elevated Liver Function Tests (LFTs), Grade 1 (related AE, subjects) ([4]; N=20, with G+A): 0
Elevated Liver Function Tests (LFTs), Grade 2 (related AE, subjects) ([4]; N=20, with G+A): 0
Elevated Liver Function Tests (LFTs), Grade 3 (related AE, subjects) ([4]; N=20, with G+A): 3
Elevated Liver Function Tests (LFTs), Grade 4 (related AE, subjects) ([4]; N=20, with G+A): 1
Elevated Liver Function Tests (LFTs), Grade 5 (related AE, subjects) ([4]; N=20, with G+A): 0
Elevated Liver Function Tests (LFTs), Total (%) (related AE) ([4]; N=20, with G+A): 20%
Elevated Liver Function Tests (LFTs), Total N (related AE) ([4]; N=20, with G+A): 4
Fatigue, Grade 1 (related AE, subjects) ([4]; N=20, with G+A): 4
Fatigue, Grade 2 (related AE, subjects) ([4]; N=20, with G+A): 3
Fatigue, Grade 3 (related AE, subjects) ([4]; N=20, with G+A): 1
Fatigue, Grade 4 (related AE, subjects) ([4]; N=20, with G+A): 0
Fatigue, Grade 5 (related AE, subjects) ([4]; N=20, with G+A): 0
Fatigue, Total (%) (related AE) ([4]; N=20, with G+A): 40%
Fatigue, Total N (related AE) ([4]; N=20, with G+A): 8
Injection site pain, Grade 1 (related AE, subjects) ([4]; N=20, with G+A): 4
Injection site pain, Grade 2 (related AE, subjects) ([4]; N=20, with G+A): 0
Injection site pain, Grade 3 (related AE, subjects) ([4]; N=20, with G+A): 0
Injection site pain, Grade 4 (related AE, subjects) ([4]; N=20, with G+A): 0
Injection site pain, Grade 5 (related AE, subjects) ([4]; N=20, with G+A): 0
Injection site pain, Total (%) (related AE) ([4]; N=20, with G+A): 20%
Injection site pain, Total N (related AE) ([4]; N=20, with G+A): 4
Nausea, Grade 1 (related AE, subjects) ([4]; N=20, with G+A): 1
Nausea, Grade 2 (related AE, subjects) ([4]; N=20, with G+A): 1
Nausea, Grade 3 (related AE, subjects) ([4]; N=20, with G+A): 0
Nausea, Grade 4 (related AE, subjects) ([4]; N=20, with G+A): 0
Nausea, Grade 5 (related AE, subjects) ([4]; N=20, with G+A): 0
Nausea, Total (%) (related AE) ([4]; N=20, with G+A): 10%
Nausea, Total N (related AE) ([4]; N=20, with G+A): 2
liver enzyme elevation ([4]; interim, one patient in cohort 2 (0.4 mg/kg), with G and A): grade 3-4 reversible liver enzyme elevation
(S,S)-(HO)2DEHSPM-related bone marrow suppression or peripheral neuropathy ([4]; interim, with G and A): no evidence of (S,S)-(HO)2DEHSPM-related bone marrow suppression or peripheral neuropathy
reversibility of (S,S)-(HO)2DEHSPM-related increases in liver toxicity ([4]; when administration was interrupted and dose-reduced or discontinued): reversed in all but one subject
MTD at 3 weeks (clinical): < 0.8 mg/kg and < 0.8 mg/kg/day
